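All cell lines were grown in 96-well plates and treated with compound for 48 hours. Here, GI50 denotes the concentration required for 50% inhibition of growth.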 The source made the active and inactive calls. No stated cut-off is given here; in the data, active = GI50 up to about 1.1 µM and inactive = higher.
Legend:
Assay in all cases: growth of human tumour cells (NCI), 48 h
[1] = tested on: UACC-257
[2] = tested on: CAKI-1
[3] = tested on: SF-539
[4] = tested on: OVCAR-5
[5] = tested on: HCC 2998
[6] = tested on: BT-549
[7] = tested on: HOP-92
[8] = tested on: HCT-116
[9] = tested on: HT-29
[10] = tested on: SF-268
[11] = tested on: RXF 393
[12] = tested on: DU-145
[13] = tested on: A498
[14] = tested on: SK-MEL-28
[15] = tested on: SF-295
[16] = tested on: HCT-15
[17] = tested on: CCRF-CEM
[18] = tested on: A549
[19] = tested on: IGROV-1
[20] = tested on: ACHN
[21] = tested on: OVCAR-8
[22] = tested on: TK-10
[23] = tested on: OVCAR-3
[24] = tested on: U-251
[25] = tested on: SK-MEL-2
[26] = tested on: MOLT-4
[27] = tested on: Malme-3M
[28] = tested on: SNB-19
[29] = tested on: KM12
[30] = tested on: UO-31
[31] = tested on: MDA-MB-435
[32] = tested on: PC-3
[33] = tested on: NCI-H460
[34] = tested on: MCF7
[35] = tested on: SR
[36] = tested on: Hs-578T
[37] = tested on: HL-60
[38] = tested on: NCI-H23
[39] = tested on: SK-OV-3
[40] = tested on: K562
[41] = tested on: OVCAR-4
[42] = tested on: NCI/ADR-RES
[43] = tested on: MDA-N
[44] = tested on: NCI-H522
[45] = tested on: UACC-62
[46] = tested on: MDA-MB-231
[47] = tested on: NCI-H226
[48] = tested on: COLO 205
[49] = tested on: EKVX
[50] = tested on: SW-620
[51] = tested on: SN12C
[52] = tested on: T47D
[53] = tested on: LOX IMVI
[54] = tested on: SNB-75
[55] = tested on: RPMI-8226
[56] = tested on: 786-0
[57] = tested on: M14
[58] = tested on: SK-MEL-5
[59] = tested on: HOP-62

Measured: GI50

N#Cc1c(Cl)cc(Cl)n2c1nc1ccccc12
3.43 µM: [16]
inactive: [1] 10.3 µM | [2] 3.43 µM | [3] 4.47 µM | [4] 20 µM | [5] 2.51 µM | [6] 6.38 µM | [7] 4.85 µM | [8] 4.74 µM | [9] 7.55 µM | [10] 14.1 µM | [11] 13.2 µM | [12] 14.3 µM | [13] 22 µM | [14] 7.35 µM | [15] 17.3 µM | [17] 2.49 µM | [18] 17.3 µM | [19] 8.05 µM | [20] 2.64 µM | [21] 15.3 µM | [22] 6.68 µM | [23] 6 µM | [24] 20 µM | [25] 17.6 µM | [26] 3.21 µM | [27] 2.76 µM | [28] 22 µM | [29] 18.3 µM | [30] 3.63 µM | [31] 11.5 µM | [32] 14.3 µM | [33] 8 µM | [34] 4.66 µM | [35] 5.18 µM | [36] 11 µM | [37] 1.31 µM | [38] 18.2 µM | [39] 16.9 µM | [40] 2.61 µM | [41] 10.4 µM | [42] 12.6 µM | [43] 10.1 µM | [44] 2.29 µM | [45] 12.6 µM | [46] 6.49 µM | [47] 13.8 µM | [48] 3.52 µM | [49] 23.1 µM | [50] 3.15 µM | [51] 15.3 µM | [52] 5.64 µM | [53] 6.84 µM | [54] 14 µM | [55] 4.27 µM | [56] 2.86 µM | [57] 8.53 µM | [58] 14.3 µM | [59] 22.9 µM

Reference: ChEMBL document CHEMBL1201862, “PubChem BioAssay data set” (2004)
